Reference: publication PMC3525568, “The Natively Disordered Loop of Bcl-2 Undergoes Phosphorylation-Dependent Conformational Change and Interacts with Pin1” (PLoS ONE, 2012)
pKd: −log10 of the molar value. Where a SMILES comes first, the peptide text is derived from it. [ ]: non-standard residue; d: D form. pS = N[C@@H](COP(=O)(O)O)C(=O)O

Key:
Pin1 [1] = molecular target: T1, Pin1 (Homo sapiens, UniProt Q13526); assay: Binding of peptides to 15N-labeled Pin1 by 2D 1H-15N HSQC NMR titration; set-up: decahistidine (10His) (N); made in house; own knowledge; settings: 0.1 mM 15N-labeled Pin1, 90% H2O/10% D2O, 20 mM phosphate pH 7.0, 20 mM NaCl, 1 mM DTT, 0.01% NaN3, 300 K; HSQC chemical shift change vs ligand/protein ratio
Method: NMR data were acquired at 300 K on a Bruker Avance 600 equipped with a cryoprobe accessory. The NMR samples contained 0.1 mM ^15N-labeled Pin 1 in 90% H2O/10% D2O in 20 mM phosphate buffer, pH 7.0, 20 mM NaCl, 1 mM DTT, 0.01% NaN3. Chemical shift perturbations were monitored with 2D ^1H-^15N heteronuclear single quantum correlation spectroscopy (HSQC) upon addition of peptides. NMR spectra were processed using Bruker Topspin1.3. For the dissociation constant determination, lyophilized aliquots of peptides were mixed with ^15N-labeled Pin1 with different molar ratios and 2D ^15N HSQC was recorded. The dissociation constant, KD is expressed as [P]*[L]/[PL] and calculated as previously described, [21], [22].
Figure 3 Pin 1 binds to the phosphopeptide derived from the flexible loop of Bcl-2. The ^15N-labeled Pin1 (0.1 mM) was recorded with (A) 0.8 mM S87 and (B) phosphorylated S87 (pS87). The ^1H-^15N-HSQC spectra with or without peptide are show in blue and red, respectively. (C, D) Some of the amino acid chemical shifts change with the increasing peptide concentration. The arrows show the direction of chemical shift perturbations with an increasing concentration of ligand. (E, F) The relationship between chemical shift change and the ratio between ligand and protein was drawn. Values of KD were calculated from the graphs using the equation described in “Materials and methods”.

Pin1 [2] = molecular target: T1, Pin1; assay: 1H-15N HSQC titration of 15N-Pin1; settings: reference: unphosphorylated S87 peptide; sites S87
Pin1 [3] = molecular target: T1, Pin1; assay: 1H-15N HSQC of 15N-Pin1 with peptide
JNK [4] = assay: Phosphorylation of Bcl-2 proteins by JNK (γ-32P-ATP, autoradiography); format: biochemical; settings: Bcl-2 6 µM, JNK 0.5 µM, 1 h at 30°C, pH 7.5, γ-32P-ATP, SDS-PAGE
Method: (§1) For the phosphorylation of Bcl-2 by JNK, the purified Bcl-2 (6 µM) was incubated with 0.5 µM JNK for 1 h at 30°C in a buffer containing 10 mM Tris-HCl pH 7.5, 25 mM MgCl2, 1 mM EGTA, 1 mM ATP, 1 µCi γ-^32P-ATP, and 250 µM PMSF. For the phosphorylation of Bcl-2 by ERK2, ERK2 was incubated with purified Bcl-2 in a buffer containing 50 mM Tris-HCl, 10 mM MgCl2, 2 mM dithiothreitol (DTT), 1 mM EGTA, and 0.01% Brij 35 detergent, pH 7.5. The samples were separated on 12.5% gels by SDS-PAGE and visualized using autoradiography.
(§2) Supplementary file pone.0052047.s001.tif: Figure S1 Phosphorylation of Bcl-2 in the loop domain by ERK2 and JNK. (A–B) Different peptides (200 µM) were added into the reaction mixture with either (A) JNK (10 µM) or (B) ERK2 (10 µM). After reaction at 30°C for 1 h, the samples were heated at 90°C to inactivate the kinase and loaded onto C-18 column for reverse phase-HPLC analysis. (C) Point mutations of Bcl-2 (T56A and S87A) were used for the kinase reaction as described in “Materials and methods”, and the phosphorylation reactions were analyzed by using γ-^32P-ATP and followed by autoradiography. […] (E) The wild-type Bcl-2 and the flexible loop-deletion Bcl-2 mutant Bcl-2, Δ(V35–V89):6A were subject to the phosphorylation reactions by ERK2 and JNK. 1, Bcl-2 with ERK2; 2, Bcl-2Δ(V35–V89):6A with ERK2; 3, Bcl-2 with JNK; 4, Bcl-2Δ(V35–V89):6A with JNK. […]

ERK2 [5] = assay: Phosphorylation of Bcl-2 proteins by ERK2 (γ-32P-ATP, autoradiography); format: biochemical; settings: 50 mM Tris-HCl, 10 mM MgCl2, 2 mM DTT, 1 mM EGTA, 0.01% Brij 35, pH 7.5, SDS-PAGE
Method: as §1, §2

ERK2 [6] = assay: Phosphorylation of Bcl-2 loop peptides by ERK2 (HPLC); format: biochemical; settings: peptide 200 µM, ERK2 10 µM, 50 mM Tris-HCl, 10 mM MgCl2, 2 mM DTT, 1 mM EGTA, 0.01% Brij 35, pH 7.5, 30°C, 1 h; C-18 HPLC, 225 nm
Method: as §1
(§3) The loop peptides (200 µM) were mixed with JNK or ERK2 (10 µM) in the reaction buffer as described above in the “Phosphorylation of Bcl-2”. The reaction was performed at 30°C for 1 h. The samples were passed through a Ni^2+-NTA column to remove kinases fused with the histidine-tag, and the flow-through samples were combined and loaded on a C-18 column for HPLC analysis. The samples (20 µl) were injected into the C-18 column with a flow rate of 1 ml/min. The peptide was eluted with a linear gradient of acetonitrile from 0 to 30%, and the peptide peaks were detected at 225 nm.
(§4) Supplementary file pone.0052047.s001.tif: Figure S1 Phosphorylation of Bcl-2 in the loop domain by ERK2 and JNK. (A–B) Different peptides (200 µM) were added into the reaction mixture with either (A) JNK (10 µM) or (B) ERK2 (10 µM). After reaction at 30°C for 1 h, the samples were heated at 90°C to inactivate the kinase and loaded onto C-18 column for reverse phase-HPLC analysis. (C) Point mutations of Bcl-2 (T56A and S87A) were used for the kinase reaction as described in “Materials and methods”, and the phosphorylation reactions were analyzed by using γ-^32P-ATP and followed by autoradiography. […] (E) The wild-type Bcl-2 and the flexible loop-deletion Bcl-2 mutant Bcl-2, Δ(V35–V89):6A were subject to the phosphorylation reactions by ERK2 and JNK. 1, Bcl-2 with ERK2; 2, Bcl-2Δ(V35–V89):6A with ERK2; 3, Bcl-2 with JNK; 4, Bcl-2Δ(V35–V89):6A with JNK. (TIF) Click here for additional data file.

JNK [7] = assay: Phosphorylation of Bcl-2 loop peptides by JNK (HPLC); format: biochemical; settings: peptide 200 µM, JNK 10 µM, 10 mM Tris-HCl pH 7.5, 25 mM MgCl2, 1 mM EGTA, 1 mM ATP, 30°C, 1 h; C-18 HPLC, 225 nm
Method: as §1, §3, §4

Molecule	degree of phosphorylation by ERK2 (ERK2 [6])	degree of phosphorylation by JNK (JNK [7])	further results
CC(C)C[C@H](NC(=O)[C@H](C)NC(=O)[C@@H]1CCCN1C(=O)CN)C(=O)N[C@@H](COP(=O)(O)O)C(=O)N1CCC[C@H]1C(=O)N[C@H](C(=O)N1CCC[C@H]1C(=O)N1CCC[C@H]1C(=O)N[C@H](C(=O)O)C(C)C)C(C)C [pS87] (H-GPAL[pS]PVPPV-OH)			pKd (Pin1 [1]): ~3.85
Bcl-2 (from UniProt P10415) pS87 peptide			binding against the reference (Pin1 [2]): gained; reference no interaction
Bcl-2 (from UniProt P10415) pT56 peptide			binding against the reference (Pin1 [3]; reference: unphosphorylated T56 peptide, sites T56): gained
Bcl-2 (from UniProt P10415) pT74 peptide			binding against the reference (Pin1 [3]; reference: unphosphorylated T74 peptide, sites T74): gained
Bcl-2/S87A: single mutant form of Bcl-2 protein			JNK-mediated phosphorylation of Bcl-2 protein (JNK [4]): affected; ERK2-mediated phosphorylation of Bcl-2 protein (ERK2 [5]): affected
Bcl-2/T56A: single mutant form of Bcl-2 protein			JNK-mediated phosphorylation of Bcl-2 protein (JNK [4]): abolished
GPALSPVPPV [S87, synthetic peptide derived from the Bcl-2 loop covering S87]	preferred phosphorylation	preferred phosphorylation	
PLQTPAAPGA [T74, synthetic peptide derived from the Bcl-2 loop covering T74]	poorly phosphorylated	poorly phosphorylated	
PVARTSPLQT [S70, synthetic peptide derived from the Bcl-2 loop covering S70]	poorly phosphorylated	poorly phosphorylated	
QPGHTPHPAA [T56, synthetic peptide derived from the Bcl-2 loop covering T56]	able to phosphorylate the T56 peptide to a similar level	able to phosphorylate the T56 peptide to a similar level	
